Assays:
[1] = target: T1, ΔF508-CFTR (Homo sapiens, UniProt P13569, DEL508-508); test: CFTR cell surface levels using HRP-tagged ΔF508-CFTR expressing CFBE cells, intrinsic corrector capacity; format: cell-based
T1 construct: host or cells: CFBE41o-, doxycycline-inducible
In short: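 Here the cells express ΔF508-CFTR with horseradish peroxidase inserted in extracellular loop 4, so only rescued channel at the surface gives luminescent signal. Compounds act on their own, 20 h at the reduced temperature of 33 °C; values are percent activity relative to DMSO and a 3 μM corrector.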

[2] = target: T1, ΔF508-CFTR; test: CFTR cell surface levels using HRP-tagged ΔF508-CFTR expressing CFBE cells, in the presence of a co-corrector; format: cell-based
In short: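 Cells were seeded with 0.5 μg/mL doxycycline and held 68 h at 37 °C. Test compounds plus 3 μM co-corrector (final 0.1% DMSO) were then added for 20 h at 33 °C. Washed cells received HRP substrate, and luminescence was normalized between DMSO and 3 μM co-corrector controls.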

[3] = HRP-tagged ΔF508-CFTR expressing CFBE cells, intrinsic corrector capacity (no co-corrector), 33° C., 20 hours
[4] = HRP-tagged ΔF508-CFTR expressing CFBE cells, intrinsic corrector capacity (no co-corrector), 33° C., 20 hours, read-out: EC50
[5] = HRP-tagged ΔF508-CFTR expressing CFBE cells, in the presence of 3 μM co-corrector
[6] = HRP-tagged ΔF508-CFTR expressing CFBE cells, in the presence of 3 μM co-corrector, read-out: EC50

T1 sequence (P13569 with tags, fused parts or gaps DEL508-508): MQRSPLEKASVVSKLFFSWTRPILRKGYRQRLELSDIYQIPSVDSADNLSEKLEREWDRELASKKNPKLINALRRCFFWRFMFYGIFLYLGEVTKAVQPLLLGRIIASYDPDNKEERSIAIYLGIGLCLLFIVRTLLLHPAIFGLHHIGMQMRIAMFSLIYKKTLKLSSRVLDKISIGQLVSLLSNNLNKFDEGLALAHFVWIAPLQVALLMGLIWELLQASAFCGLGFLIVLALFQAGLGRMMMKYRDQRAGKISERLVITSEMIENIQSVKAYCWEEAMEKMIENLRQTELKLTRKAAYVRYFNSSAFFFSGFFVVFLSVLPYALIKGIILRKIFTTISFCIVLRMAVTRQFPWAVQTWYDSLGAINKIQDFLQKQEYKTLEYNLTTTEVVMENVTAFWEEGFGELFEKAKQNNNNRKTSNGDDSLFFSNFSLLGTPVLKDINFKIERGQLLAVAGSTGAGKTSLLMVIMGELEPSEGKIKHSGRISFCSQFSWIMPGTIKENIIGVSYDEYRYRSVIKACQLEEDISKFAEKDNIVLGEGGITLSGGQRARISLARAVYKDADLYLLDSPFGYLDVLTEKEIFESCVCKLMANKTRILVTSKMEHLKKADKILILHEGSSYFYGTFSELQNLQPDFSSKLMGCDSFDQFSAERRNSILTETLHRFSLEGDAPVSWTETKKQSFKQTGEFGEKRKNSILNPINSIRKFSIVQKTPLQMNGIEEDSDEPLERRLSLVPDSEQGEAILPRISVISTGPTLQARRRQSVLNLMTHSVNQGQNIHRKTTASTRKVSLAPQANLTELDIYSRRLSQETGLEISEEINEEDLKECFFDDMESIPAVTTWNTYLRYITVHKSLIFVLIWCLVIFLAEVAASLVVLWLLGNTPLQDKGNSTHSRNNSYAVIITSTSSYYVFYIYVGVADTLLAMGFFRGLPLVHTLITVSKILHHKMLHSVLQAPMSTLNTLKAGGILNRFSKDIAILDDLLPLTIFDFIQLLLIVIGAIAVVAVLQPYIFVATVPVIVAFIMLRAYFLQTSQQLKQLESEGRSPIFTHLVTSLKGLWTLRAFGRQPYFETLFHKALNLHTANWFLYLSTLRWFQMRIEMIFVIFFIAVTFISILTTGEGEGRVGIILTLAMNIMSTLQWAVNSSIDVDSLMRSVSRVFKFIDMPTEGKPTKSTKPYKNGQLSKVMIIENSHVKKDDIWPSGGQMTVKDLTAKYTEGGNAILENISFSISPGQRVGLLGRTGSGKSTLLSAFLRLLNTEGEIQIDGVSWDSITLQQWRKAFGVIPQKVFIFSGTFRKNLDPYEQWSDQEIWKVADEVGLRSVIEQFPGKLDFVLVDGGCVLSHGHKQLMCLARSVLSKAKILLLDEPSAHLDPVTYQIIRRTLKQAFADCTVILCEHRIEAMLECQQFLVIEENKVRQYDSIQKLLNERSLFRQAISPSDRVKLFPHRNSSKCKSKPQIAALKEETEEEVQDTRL

SMILES | % Activation [1, 3] [%] | EC50 [1, 4] [nM] | % Activation [2, 5] [%] | EC50 [2, 6] [nM] | EC50 [1] [nM] | EC50 [2] [nM]
O=C(O)c1cc(N2CC[C@H](F)[C@H](O)C2)c2c(C3CCC3)nn(-c3ccccc3)c2n1 [compound 535, 3-cyclobutyl-4-[(3R,4S)-4-fluoro-3-hydroxypiperidin-1-yl]-1-phenyl-1H-pyrazolo[3,4-b]pyridine-6-carboxylic acid] | 56.68 | 2850 | 205.9 | 1410 |  | 
CC1(O)CN(c2cc(C(=O)O)nc3c2c(C2CCC2)nn3-c2ccccc2)C1 [compound 536, 3-cyclobutyl-4-(3-hydroxy-3-methylazetidin-1-yl)-1-phenyl-1H-pyrazolo[3,4-b]pyridine-6-carboxylic acid] | 49.72 | 3330 | 209.35 | 2470 |  | 
O=C(O)c1cc(N2CCC3(CCNC3=O)C2)c2c(C3CCC3)nn(-c3ccccc3)c2n1 (centres unmarked) [compound 537, 3-cyclobutyl-4-(6-oxo-2,7-diazaspiro[4.4]nonan-2-yl)-1-phenyl-1H-pyrazolo[3,4-b]pyridine-6-carboxylic acid] | 45.36 | 3330 | 191.2 | 3330 |  | 
O=C(O)c1cc(N2CC(F)(F)C[C@H]2CO)c2c(C3CCC3)nn(-c3ccccc3)c2n1 [compound 538, 3-cyclobutyl-4-[(2S)-4,4-difluoro-2-(hydroxymethyl)pyrrolidin-1-yl]-1-phenyl-1H-pyrazolo[3,4-b]pyridine-6-carboxylic acid] | 124.6 | 2430 | 312.05 | 1540 |  | 
O=C(CN1CCN(c2cc(C(=O)O)nc3c2c(C2CCC2)nn3-c2ccccc2)CC1)NC1CCCCC1 [compound 540, 3-cyclobutyl-4-{4-[2-(cyclohexylamino)-2-oxoethyl]piperazin-1-yl}-1-phenyl-1H-pyrazolo[3,4-b]pyridine-6-carboxylic acid] | 142.2 | 452 | 314.05 | 324 |  | 
O=C(O)c1cc(N2CC[C@@H](F)C2)c2c(C3CCC3)nn(-c3ccccc3)c2n1 [compound 541, 3-cyclobutyl-4-[(3R)-3-fluoropyrrolidin-1-yl]-1-phenyl-1H-pyrazolo[3,4-b]pyridine-6-carboxylic acid] | 120.7 | 988 | 287.85 | 799 |  | 
COC1CN(c2cc(C(=O)O)nc3c2c(C2CCC2)nn3-c2ccccc2)C1 [compound 542, 3-cyclobutyl-4-(3-methoxyazetidin-1-yl)-1-phenyl-1H-pyrazolo[3,4-b]pyridine-6-carboxylic acid] | 104.6 | 1840 | 290.6 | 1780 |  | 
O=C(O)c1cc(N2CCC3(CC2)CC(O)C3)c2c(C3CCC3)nn(-c3ccccc3)c2n1 [compound 543, 3-cyclobutyl-4-(2-hydroxy-7-azaspiro[3.5]nonan-7-yl)-1-phenyl-1H-pyrazolo[3,4-b]pyridine-6-carboxylic acid] | 129.15 | 304 | 304.9 | 242 |  | 
O=C(O)c1cc(N2CCC[C@@H](CO)C2)c2c(C3CCC3)nn(-c3ccccc3)c2n1 [compound 544, 3-cyclobutyl-4-[(3R)-3-(hydroxymethyl)piperidin-1-yl]-1-phenyl-1H-pyrazolo[3,4-b]pyridine-6-carboxylic acid] | 129.55 |  | 273 |  | 803 | 457
O=C(O)c1cc(N2CCCOCC2)c2c(C3CCC3)nn(-c3ccccc3)c2n1 [compound 545, 3-cyclobutyl-4-(1,4-oxazepan-4-yl)-1-phenyl-1H-pyrazolo[3,4-b]pyridine-6-carboxylic acid] | 109.4 | 1150 | 247.05 | 563 |  | 
O=C(O)c1cc(N2CCC(O)(CCO)CC2)c2c(C3CCC3)nn(-c3ccccc3)c2n1 [compound 546, 3-cyclobutyl-4-[4-hydroxy-4-(2-hydroxyethyl)piperidin-1-yl]-1-phenyl-1H-pyrazolo[3,4-b]pyridine-6-carboxylic acid] | 87.52 | 3330 | 246.6 | 3330 |  | 
COCC1CCN(c2cc(C(=O)O)nc3c2c(C(C)C)nn3CC2CCC2)CC1 [compound 547, 1-(cyclobutylmethyl)-4-[4-(methoxymethyl)piperidin-1-yl]-3-(propan-2-yl)-1H-pyrazolo[3,4-b]pyridine-6-carboxylic acid] | 120.7 | 3330 | 318.7 | 1880 |  | 
COCC1CCN(c2cc(C(=O)O)nc3c2c(C(C)C)nn3CC(C)C)CC1 [compound 548, 4-[4-(methoxymethyl)piperidin-1-yl]-1-(2-methylpropyl)-3-(propan-2-yl)-1H-pyrazolo[3,4-b]pyridine-6-carboxylic acid] | 88.93 | 2540 | 306 | 3330 |  | 
N#CC1CCN(c2ccc(-c3cc(C(=O)O)nc4c3c(OC3CCNC3)nn4-c3ccccc3)cn2)CC1 (centres unmarked) [compound 550, 4-[6-(4-cyanopiperidin-1-yl)pyridin-3-yl]-1-phenyl-3-[(pyrrolidin-3-yl)oxy]-1H-pyrazolo[3,4-b]pyridine-6-carboxylic acid] | 4.775 | > 10000 | 122.4 | > 10000 |  | 
C[C@H]1C[C@H](c2nn(-c3ccccc3)c3nc(C(=O)O)cc(-c4ccc(N5CCC(C#N)CC5)nc4)c32)C1 [compound 551, 4-[6-(4-cyanopiperidin-1-yl)pyridin-3-yl]-3-(trans-3-methylcyclobutyl)-1-phenyl-1H-pyrazolo[3,4-b]pyridine-6-carboxylic acid] | 223.1 | 370 | 424.35 | 87.2 |  | 
CC(C)(C)OC(=O)N1CCC(Oc2nn(-c3ccccc3)c3nc(C(=O)O)cc(-c4ccc(N5CCC(C#N)CC5)nc4)c23)C1 (centres unmarked) [compound 552, 3-{[1-(tert-butoxycarbonyl)pyrrolidin-3-yl]oxy}-4-[6-(4-cyanopiperidin-1-yl)pyridin-3-yl]-1-phenyl-1H-pyrazolo[3,4-b]pyridine-6-carboxylic acid] | 156.1 | 370 | 396.65 | 396 |  | 
CC(C)(C)OC(=O)N1CCC(Oc2nn(-c3ccccc3)c3nc(C(=O)O)cc(-c4ccc(N5CCC(C#N)CC5)nc4)c23)CC1 [compound 553, 3-{[1-(tert-butoxycarbonyl)piperidin-4-yl]oxy}-4-[6-(4-cyanopiperidin-1-yl)pyridin-3-yl]-1-phenyl-1H-pyrazolo[3,4-b]pyridine-6-carboxylic acid] | 189.7 | 370 | 419.05 | 119 |  | 
CCCOCCN1CCN(c2cc(C(=O)O)nc3c2c(C2CCC2)nn3-c2ccccc2)CC1 [compound 555, 3-cyclobutyl-1-phenyl-4-[4-(2-propoxyethyl)piperazin-1-yl]-1H-pyrazolo[3,4-b]pyridine-6-carboxylic acid] | 152 | 331 | 310.65 | 169 |  | 
O=C(O)c1cc(N2CCOC(CN3CCCCC3)C2)c2c(C3CCC3)nn(-c3ccccc3)c2n1 (centres unmarked) [compound 556, 3-cyclobutyl-1-phenyl-4-{2-[(piperidin-1-yl)methyl]morpholin-4-yl}-1H-pyrazolo[3,4-b]pyridine-6-carboxylic acid] | 140.1 | 838 | 324 | 682 |  | 
O=C(O)c1cc(N2CCN(CCCN3CCOCC3)CC2)c2c(C3CCC3)nn(-c3ccccc3)c2n1 [compound 558, 3-cyclobutyl-4-{4-[3-(morpholin-4-yl)propyl]piperazin-1-yl}-1-phenyl-1H-pyrazolo[3,4-b]pyridine-6-carboxylic acid] | 121.3 | 1370 | 322.5 | 778 |  | 
N#CCCN1CCN(c2cc(C(=O)O)nc3c2c(C2CCC2)nn3-c2ccccc2)CC1 [compound 561, 4-[4-(2-cyanoethyl)piperazin-1-yl]-3-cyclobutyl-1-phenyl-1H-pyrazolo[3,4-b]pyridine-6-carboxylic acid] | 174.8 | 1590 | 348 | 427 |  | 
CN(C)CC1CN(c2cc(C(=O)O)nc3c2c(C2CCC2)nn3-c2ccccc2)CCO1 (centres unmarked) [compound 562, 3-cyclobutyl-4-{2-[(dimethylamino)methyl]morpholin-4-yl}-1-phenyl-1H-pyrazolo[3,4-b]pyridine-6-carboxylic acid] | 154.7 | 1770 | 347 | 921 |  | 
CCOCCN1CCN(c2cc(C(=O)O)nc3c2c(C2CCC2)nn3-c2ccccc2)CC1 [compound 566, 3-cyclobutyl-4-[4-(2-ethoxyethyl)piperazin-1-yl]-1-phenyl-1H-pyrazolo[3,4-b]pyridine-6-carboxylic acid] | 150.5 | 388 | 365.3 | 407 |  | 

— US9796711B2, “Substituted pyrazolo[3,4-b]pyridin-6-carboxylic acids and method of use” (AbbVie S.àr.l., priority 2015, dated 2017)
